Reference: ChEMBL document CHEMBL5712891, “Inhibition of BET bromodomain-dependent XIAP and FLIP expression sensitizes KRAS-mutated NSCLC to pro-apoptotic agents” (Cell Death Dis, 2016)
Activity calls are given as the source filed them. The calls are words filed in the database; no cut-off is given here.

How the values were obtained:
DV-90 [1] = assay: Induction of cell cycle arrest in human DV-90 cells assessed as accumulation of cells at G0/G1 phase at 0.25 uM for 24 hrs by Click-iT EdU Alexa Fluor 647 flow cytometric assay kit analysis (reference value: 47%); format: functional
DV-90 [2] = assay: Induction of cell cycle arrest in human DV-90 cells assessed as accumulation of cells at G0/G1 phase at 0.5 uM for 24 hrs by Click-iT EdU Alexa Fluor 647 flow cytometric assay kit analysis (reference value: 47%); format: functional
A549 [3] = assay: Induction of apoptosis in human A549 cells assessed as early apoptotic cells at 0.5 uM for 24 hrs by annexin V-PI staining based flow cytometric analysis (reference value: 0.2%); format: functional
DV-90 [4] = assay: Induction of apoptosis in human DV-90 cells assessed as viable cells at 2.5 uM for 48 hrs by annexin V-PI staining based flow cytometric analysis (reference value: 81.9%); settings: DV-90, 48 h
DV-90 [5] = assay: Induction of apoptosis in human DV-90 cells assessed as necrotic cells at 0.5 uM for 48 hrs by annexin V-PI staining based flow cytometric analysis (reference value: 8.4%)
DV-90 [6] = assay: Induction of cell cycle arrest in human DV-90 cells assessed as accumulation of cells at G0/G1 phase at 0.1 uM for 24 hrs by Click-iT EdU Alexa Fluor 647 flow cytometric assay kit analysis (reference value: 45%); format: functional
DV-90 [7] = assay: Induction of cell cycle arrest in human DV-90 cells assessed as accumulation of cells at G2/M phase at 0.5 uM for 24 hrs by Click-iT EdU Alexa Fluor 647 flow cytometric assay kit analysis (reference value: 25%); format: functional
A549 [8] = assay: Induction of cell cycle arrest in human A549 cells assessed as accumulation of cells at G0/G1 phase at 0.5 uM for 24 hrs by Click-iT EdU Alexa Fluor 647 flow cytometric assay kit analysis (reference value: 61%); format: functional
A549 [9] = assay: Induction of cell cycle arrest in human A549 cells assessed as accumulation of cells at S phase at 0.25 uM for 24 hrs by Click-iT EdU Alexa Fluor 647 flow cytometric assay kit analysis (reference value: 35%); format: functional
A549 [10] = assay: Induction of cell cycle arrest in human A549 cells assessed as accumulation of cells at S phase at 1 uM for 24 hrs by DAPI staining analysis (reference value: 36%); format: functional
DV-90 [11] = assay: Induction of apoptosis in human DV-90 cells assessed as early apoptotic cells at 0.5 uM for 24 hrs by annexin V-PI staining based flow cytometric analysis (reference value: 1.7%); format: functional
DV-90 [12] = assay: Induction of apoptosis in human DV-90 cells assessed as late apoptotic cells at 0.5 uM for 24 hrs by annexin V-PI staining based flow cytometric analysis (reference value: 11.4%); format: functional
NCI-H1373 [13] = assay: Induction of apoptosis in human NCI-H1373 cells assessed as late apoptotic cells at 0.5 uM for 24 hrs by annexin V-PI staining based flow cytometric analysis (reference value: 16.2%); format: functional
NCI-H1373 [14] = assay: Induction of apoptosis in human NCI-H1373 cells assessed as early apoptotic cells at 2.5 uM for 24 hrs by annexin V-PI staining based flow cytometric analysis (reference value: 0.6%); format: functional
NCI-H1373 [15] = assay: Induction of apoptosis in human NCI-H1373 cells assessed as necrotic cells at 2.5 uM for 24 hrs by annexin V-PI staining based flow cytometric analysis (reference value: 5.5%); format: functional
NCI-H460 = assay: Induction of apoptosis in human NCI-H460 cells assessed as late apoptotic cells at 2.5 uM for 24 hrs by annexin V-PI staining based flow cytometric analysis (reference value: 3.0%); format: functional
LCLC-97TM1 = assay: Downregulation of c-MYC mRNA expression level in human LCLC-97TM1 cells at 0.1 to 1 uM for 24 hrs by qRT-PCR analysis; format: functional, cell-based; settings: dose 0.1-1 µM
NCI-H1373 [16] = assay: Downregulation of XIAP mRNA expression level in human NCI-H1373 cells at 0.1 to 1 uM for 24 hrs by qRT-PCR analysis; format: functional, cell-based; settings: dose 0.1-1 µM
NCI-H23 = assay: Downregulation of XIAP mRNA expression level in human NCI-H23 cells at 0.1 to 1 uM for 24 hrs by qRT-PCR analysis; format: functional, cell-based; settings: dose 0.1-1 µM
NCI-H2347 = assay: Downregulation of XIAP mRNA expression level in human NCI-H2347 cells at 0.1 to 1 uM for 24 hrs by qRT-PCR analysis; format: functional, cell-based; settings: dose 0.1-1 µM
DV-90 [17] = assay: Downregulation of FLIP mRNA expression level in human DV-90 cells at 0.1 to 1 uM for 24 hrs by qRT-PCR analysis; format: functional, cell-based; settings: dose 0.1-1 µM
DV-90 [18] = assay: Downregulation of C-MYC mRNA expression level in human DV-90 cells at 0.1 to 1 uM for 24 hrs by qRT-PCR analysis; format: functional, cell-based; settings: dose 0.1-1 µM
SK-LU-1 = assay: Downregulation of XIAP protein expression level in human SK-LU-1 cells at 1 uM for 24 hrs by […] analysis; format: functional, cell-based
DV-90 [19] = assay: Downregulation of c-MYC protein expression level in human DV-90 cells at 1 uM for 24 hrs by […] analysis; format: functional, cell-based
NCI-H358 = assay: Downregulation of c-MYC protein expression level in human NCI-H358 cells at 1 uM for 24 hrs by […] analysis; format: functional, cell-based
NCI-H2030 [20] = assay: Downregulation of c-MYC protein expression level in human NCI-H2030 cells at 1 uM for 24 hrs by […] analysis; format: functional, cell-based
NCI-H2030 [21] = assay: Induction of TRAIL dependent apoptosis in human NCI-H2030 cells by annexin V-PI staining based flow cytometric analysis; format: functional, cell-based
NCI-H1373 [22] = assay: Induction of TRAIL dependent apoptosis in human NCI-H1373 cells assessed as late apoptotic cells at 1 uM by annexin V-PI staining based flow cytometric analysis (reference value: 8.3%); format: functional
NCI-H1373 [23] = assay: Antiproliferative activity against human NCI-H1373 cells at 500 to 2500 nM in presence of TNF by cell titre glo assay; format: functional, cell-based; settings: dose 500-2500 nM
NCI-H2030 [24] = assay: Antiproliferative activity against human NCI-H2030 cells at 500 to 2500 nM in presence of TNF by cell titre glo assay; format: functional, cell-based; settings: dose 500-2500 nM
A549 [25] = assay: Induction of apoptosis in human A549 cells assessed as viable cells at 1 uM by annexin V-PI based flow cytometric analysis (reference value: 95.7%); format: functional; settings: read-out: Activity
A549 [26] = assay: Induction of apoptosis in human A549 cells assessed as early apoptotic cells at 1 uM by annexin V-PI based flow cytometric analysis (reference value: 0.2%); format: functional
A549 [27] = assay: Induction of apoptosis in human A549 cells assessed as necrotic cells at 1 uM by annexin V-PI based flow cytometric analysis (reference value: 1.6%); format: functional
[28] = Toxicity in SCID mouse xenografted with human A549 cells assessed as body weight loss administered at 80 mg/kg, ip for 7 days along with cisplatin for 5 days follwed by compound treatment for 14 days relative to control; format: organism-based; settings: in vivo, 672 h, time 28 day

## Cc1sc2c(c1C)C(c1ccc(Cl)cc1)=N[C@@H](CC(=O)Nc1ccc(O)cc1)c1nnc(C)n1-2 [BIRABRESIB]
DV-90 [1]
  Activity: 52%
DV-90 [2]
  Activity: 56%
A549 [3]
  Activity: 0.1%
DV-90 [4]
  viability at 2.5 µM: 49.4%
DV-90 [5]
  Activity: 27.6%

## CCNC(=O)C[C@@H]1N=C(c2ccc(Cl)cc2)c2cc(OC)ccc2-n2c(C)nnc21 [MOLIBRESIB]
DV-90 [6]
  Activity: 46%
DV-90 [7]
  Activity: 30%

## Cc1sc2c(c1C)C(c1ccc(Cl)cc1)=N[C@@H](CC(=O)OC(C)(C)C)c1nnc(C)n1-2
A549 [8]
  Activity: 63%
A549 [9]
  Activity: 33%
A549 [10]
  Activity: 32%
DV-90 [11]
  Activity: 2.6%
DV-90 [12]
  Activity: 10.7%
NCI-H1373 [13]
  Activity: 20.2%
NCI-H1373 [14]
  Activity: 2.9%
NCI-H1373 [15]
  Activity: 17.2%
NCI-H460
  Activity: 5.5%
LCLC-97TM1
  Activity: Active
NCI-H1373 [16]
  Activity: Active
NCI-H23
  Activity: Active
NCI-H2347
  Activity: Active
DV-90 [17]
  Activity: Active
DV-90 [18]
  Activity: Active
SK-LU-1
  Activity: Active
DV-90 [19]
  Activity: Active
NCI-H358
  Activity: Active
NCI-H2030 [20]
  Activity: Active
NCI-H2030 [21]
  Activity: Active
NCI-H1373 [22]
  Activity: 14%
NCI-H1373 [23]
  Activity: Active
NCI-H2030 [24]
  Activity: Active
A549 [25]
  viability at 1 µM: 98%
A549 [26]
  Activity: 0.1%
A549 [27]
  Activity: 0.6%
[28]
  T/C: 10%
